Measurements from US20110201623A1, “Crystalline Form Of A Cyclopropyl Benzamide Derivative” (priority 2010, published 2011).

Experiments:
[1] = molecular target: human H3 receptor (445 aa) (Homo sapiens, UniProt Q9Y5N1); assay: Human histamine H3 binding assay with the agonist radioligand [3H]-N-α-methylhistamine; details: membranes, SPA, 1.5 nmol/L radioligand, pH 7.4, room temperature; read-out: IC50 equivalent of pIC50, inhibition of specific binding of [3H]-N-α-Methyl Histamine to the human H3 receptor (converted)
Method: Human Histamine H3 Binding Assay with the Agonist Radioligand [^3H]-N-a-Methylhistamine
The H3 binding assay was used to evaluate the ability of a compound of formula (I) to inhibit [^3H]-N-a-methylhistamine under the conditions as described below: All binding assays were performed in a buffer consisting of 20 mmol/L Hepes, 100 mmol/L NaCl. The pH was set at 7.4 at room temperature. Liquid handling robots were used to prepare, in drug plates, 10 points dose response curves of the compound of formula (I) (3-fold serial dilutions, starting at 10 μmol/L). The assay, performed in 96-well plates, consisted of 100 μL, containing 20 μL of buffer alone for total binding (column #1), 20 μL of imetit (5×) for the non specific binding (column #2), 20 μL of the compound of formula (I) (5×) at varying concentrations (column #3 to #12), plus 20 μL of [3H]-N-a-Methylhistamine (25 000 dpm/well, 1.5 nmol/L) in all wells and finally 60 μL of membranes (20 μg of protein/well) mix is added to start the reaction. Membranes and SPA beads (1000 μg/well) were mixed together and incubated for 30 minutes at room is temperature prior to the start of the assay. […] Plates were then mixed on an orbital mixer, incubated 90 minutes at room temperature, and then read on a Trilux 384™ counter.

hH3 receptors = hH3 receptors (Homo sapiens, UniProt Q9Y5N1); assay: [35S]GTPγS binding assay, antagonist mode (RαMH EC80); type: biochemical; details: RαMH at EC80 (30 nmol/L for hH3), membranes, SPA; read-out: IC50 equivalent of pIC50, inhibition of H3 agonist R-α-Methyl-Histamine stimulated [35S]GTPγS binding (converted)
Method: Guanosine 5′-O-(3-[^35S]thio)triphosphate [GTPgS] Binding Assay
[^35S]GTPγS binding assay was performed in a buffer consisting of 20 mmol/L Hepes, 100 mmol/L NaCl, 10 mmol/L MgCl2, 3 μg/mL saponine and 10 μmol/L GDP. The pH was set at 7.4 at room temperature. Liquid handling robots were used to prepare, in drug plates, 10 points dose response curves of the compound of formula (I) (3-fold serial dilutions, starting at 1 μmol/L for hH3 receptors and 10 μmol/L for rH3 receptors). The assay, performed in 96-well plates, consisted of 120 μL, containing 20 μL of RαMH (EC80, antagonist mode), 20 μL the compound of formula (I) at varying concentrations, 20 μL of the tracer [^35S]GTPγS (60000 dpm/well, 0.2 nmol/L) and finally 60 μL of membranes (10 μg of protein/well for hH3) mix is added to start the reaction. Membranes, SPA beads (125 μg/well) and GDP were mixed together and incubated for 30 minutes at room temperature prior to the start of the assay. Eight wells were used to define baseline and RαMH EC80 (30 nmol/L for hH3 receptors) define the positive control. Plates were then mixed (2 minutes) on an orbital mixer, incubated 60 minutes at room temperature, and then read on a Trilux 384™ counter.

human H3 receptor (445 aa), sequence (Q9Y5N1 whole entry): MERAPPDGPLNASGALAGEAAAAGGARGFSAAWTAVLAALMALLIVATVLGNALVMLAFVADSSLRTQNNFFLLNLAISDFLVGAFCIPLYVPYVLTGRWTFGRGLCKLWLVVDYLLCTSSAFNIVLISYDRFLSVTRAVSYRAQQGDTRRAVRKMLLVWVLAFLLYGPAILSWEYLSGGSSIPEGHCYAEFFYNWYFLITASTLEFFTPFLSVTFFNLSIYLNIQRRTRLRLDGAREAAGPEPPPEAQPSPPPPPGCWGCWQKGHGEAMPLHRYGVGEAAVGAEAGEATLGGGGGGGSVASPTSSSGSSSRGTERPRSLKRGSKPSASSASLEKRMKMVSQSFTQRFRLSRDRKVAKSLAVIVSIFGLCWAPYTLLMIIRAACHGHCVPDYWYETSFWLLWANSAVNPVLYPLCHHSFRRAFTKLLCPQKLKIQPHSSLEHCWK
hH3 receptors, sequence (Q9Y5N1 whole entry): as above

`NC(=O)c1ccc([C@H]2C[C@@H]2C(=O)N2CCN(C3CCC3)CC2)cc1` [Compound (I), 4-{(1S,2S)-2-[(4-cyclobutylpiperazin-1-yl)carbonyl]-cyclopropyl}-benzamide] showed an IC50 [1] of 13 nM and an IC50 (hH3 receptors) of 3 nM.
